Assay results reported in patent US6610738B2, “N-disubstituted carbamoyloxy flavones” (priority 2000, dated 2003).
Like-named read-outs stand apart in the source and are kept apart here.

Experiments:
[1] = target: acetylcholine esterase (Homo sapiens, UniProt P22303); assay: biochemical
[2] = system: acetylcholine esterase; assay: AChE inhibition ex vivo (Table II); format: in vivo
[3] = time not given, read-out: AchE inhibition IC50
[4] = read-out: AchE inhibition IC50 (5′)
[5] = read-out: AchE inhibition IC50 (30′)

Chain of acetylcholine esterase (Homo sapiens, UniProt P22303) (P22303 32-614): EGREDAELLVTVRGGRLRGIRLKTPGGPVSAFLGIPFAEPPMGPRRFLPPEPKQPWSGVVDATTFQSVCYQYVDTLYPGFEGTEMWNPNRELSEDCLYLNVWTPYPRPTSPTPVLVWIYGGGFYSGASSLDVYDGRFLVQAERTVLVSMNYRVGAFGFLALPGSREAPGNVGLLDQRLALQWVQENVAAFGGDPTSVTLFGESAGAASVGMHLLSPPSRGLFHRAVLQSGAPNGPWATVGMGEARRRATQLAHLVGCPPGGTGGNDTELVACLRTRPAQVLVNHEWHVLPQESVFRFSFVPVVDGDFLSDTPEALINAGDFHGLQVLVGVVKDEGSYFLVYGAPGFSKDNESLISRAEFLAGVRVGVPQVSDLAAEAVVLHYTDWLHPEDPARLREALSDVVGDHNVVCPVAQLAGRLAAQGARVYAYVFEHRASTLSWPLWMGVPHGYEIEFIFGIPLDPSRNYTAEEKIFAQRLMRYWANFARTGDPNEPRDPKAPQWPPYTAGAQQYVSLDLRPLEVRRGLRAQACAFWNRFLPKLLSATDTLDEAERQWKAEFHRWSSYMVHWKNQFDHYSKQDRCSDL

SMILES | melting point [°C] | IC50 [1, 3] [µM] | also measured
CN(C)C(=O)Oc1cccc(-c2cc(=O)c3cc(N(C)C)ccc3o2)c1 | 167 to 168 | – | –
CCOc1ccc2c(=O)cc(-c3ccccc3OC(=O)N(C)C)oc2c1 | 166 to 168 | – | –
CCOc1ccc2c(=O)cc(-c3ccccc3OC(=O)N(C)CC)oc2c1 | 91 to 93.5 | – | –
COc1ccccc1-c1cc(=O)c2ccc(OC(=O)N(C)C)cc2o1 | 133.5 to 135 | – | –
CN(C)C(=O)Oc1ccc2c(=O)cc(-c3ccccc3OC(=O)N(C)C)oc2c1 | 145.5 to 147 | – | –
CN(C)C(=O)Oc1cccc(-c2cc(=O)c3cc(N)ccc3o2)c1 | 157 to 159 | – | –
CN(C)C(=O)Oc1ccccc1-c1cc(=O)c2ccccc2o1 | – | 2.65 | AchE inhibition Ex vivo ([2]; at 40 μM/kg): 29% at 40 μM/kg
CN(C)C(=O)Oc1cccc(-c2cc(=O)c3ccccc3o2)c1 | – | 1.4 | AchE inhibition Ex vivo ([2]; at 40 μM/kg): 42% at 40 μM/kg
CCN(C)C(=O)Oc1cccc(-c2cc(=O)c3ccccc3o2)c1 | – | 41 | –
CCN(C)C(=O)Oc1ccccc1-c1cc(=O)c2ccccc2o1 | – | 3.5 | AchE inhibition Ex vivo ([2]; at 50 μM/kg): 14% at 50 μM/kg
C[N+](C)(C)c1ccc2oc(-c3ccccc3)cc(=O)c2c1 | – | – | IC50 [1, 4]: 10.5 µM; IC50 [1, 5]: 48 µM
COc1ccc(-c2cc(=O)c3cc([N+](C)(C)C)ccc3o2)cc1 | – | – | IC50 [1, 4]: 5.5 µM; IC50 [1, 5]: 6 µM
CN(C)CCOc1cccc(-c2cc(=O)c3ccccc3o2)c1 | – | – | IC50 [1, 4]: 10 µM; IC50 [1, 5]: 5.8 µM
